Reference: the NIST ThermoML archive (doi:10.1016/j.fluid.2012.10.024)

Key:
[1] = mn = molality of the nth substance listed, in mol/kg; settings: 101 kPa, Liquid, Vibrating tube method
[2] = 101.33 kPa, Liquid, Vibrating tube method

OCC1CCCCN1 (stereo unspecified) [2-(hydroxymethyl)piperidine] + O
mass density [kg/m3], [1]
Settings | m1 = 0.0476 | m1 = 0.0676 | m1 = 0.0864 | m1 = 0.1214 | m1 = 0.1524 | m1 = 0.1766 | m1 = 0.2009 | m1 = 0.2264 | m1 = 0.2609
293.15 K | 998.6 | 998.75 | 998.87 | 999.15 | 999.37 | 999.52 | 999.71 | 999.87 | 1000.11
298.15 K | 997.46 | 997.6 | 997.72 | 997.99 | 998.2 | 998.34 | 998.53 | 998.68 | 998.91
303.15 K | 996.06 | 996.19 | 996.31 | 996.57 | 996.77 | 996.91 | 997.09 | 997.24 | 997.46
308.15 K | 994.44 | 994.56 | 994.68 | 994.93 | 995.13 | 995.26 | 995.43 | 995.58 | 995.79
313.15 K | 992.59 | 992.74 | 992.85 | 993.1 | 993.28 | 993.41 | 993.58 | 993.72 | 993.92
318.15 K | 990.6 | 990.72 | 990.83 | 991.07 | 991.25 | 991.37 | 991.53 | 991.66 | 991.86

OCC1CCCNC1 (stereo unspecified) [3-(hydroxymethyl)piperidine] + O
mass density [kg/m3], [1]
Settings | m1 = 0.0562 | m1 = 0.0841 | m1 = 0.1205 | m1 = 0.1576 | m1 = 0.188 | m1 = 0.2257 | m1 = 0.2728 | m1 = 0.3059 | m1 = 0.3481
293.15 K | 999.04 | 999.09 | 999.36 | 999.67 | 999.94 | 1000.2 | 1000.48 | 1000.72 | 1000.95
298.15 K | 997.9 | 997.94 | 998.2 | 998.52 | 998.77 | 999.02 | 999.285 | 999.52 | 999.74
303.15 K | 996.5 | 996.53 | 996.79 | 997.1 | 997.34 | 997.58 | 997.835 | 998.06 | 998.27
308.15 K | 994.87 | 994.9 | 995.16 | 995.46 | 995.7 | 995.93 | 996.165 | 996.39 | 996.59
313.15 K | 993.05 | 993.07 | 993.32 | 993.61 | 993.85 | 994.07 | 994.3 | 994.52 | 994.71
318.15 K | 991.04 | 991.06 | 991.3 | 991.58 | 991.82 | 992.02 | 992.25 | 992.46 | 992.64

OCc1ccccn1 [α-picolyl alcohol]
[2]
Settings | mass density [kg/m3]
291.15 K | 1133.6
292.15 K | 1133.1
293.15 K | 1132.4
295.15 K | 1130.7
297.15 K | 1129.3
298.15 K | 1128.7
299.15 K | 1127.7
300.15 K | 1127.1
302.15 K | 1125.6
303.15 K | 1124.8
304.15 K | 1124
306.15 K | 1122.4
308.15 K | 1120.8
310.15 K | 1119.4
312.15 K | 1118.1
313.15 K | 1117.2
315.15 K | 1115.6
317.15 K | 1114.2
318.15 K | 1113.5

OCc1cccnc1 [β-picolyl alcohol]
[2]
Settings | mass density [kg/m3]
291.15 K | 1138.2
292.15 K | 1137.5
293.15 K | 1136.8
295.15 K | 1135.3
297.15 K | 1134.1
298.15 K | 1133.5
299.15 K | 1132.6
300.15 K | 1131.8
302.15 K | 1130.4
303.15 K | 1129.6
304.15 K | 1128.9
306.15 K | 1127.5
308.15 K | 1125.9
310.15 K | 1124.7
312.15 K | 1123.5
313.15 K | 1122.6
315.15 K | 1121.2
317.15 K | 1120
318.15 K | 1119.3
